Assay results as given in patent US20240217990A1 (Gilead Sciences, Inc., priority 2021, published 2024).

Key:
TLR7 = biological target: T1, TLR7 (Homo sapiens, UniProt Q9NYK1); test: TLR7 human PBMC cell-based assay (antagonist, GS-986 stimulated cytokine release); details: human PBMCs; TLR7 agonist GS-986 400 nM, 6 hours; cytokines (IL-6 and IFNα) in supernatant; read-out: TLR-7 EC50
T1 construct: Human peripheral blood mononuclear cells (PBMCs) consist of lymphocytes, monocytes and dendritic cells that express TLR7, TLR8 and TLR9; endogenous in cells; host or cells: cryopreserved human PBMCs from healthy donors
T1 sequence (Q9NYK1 27-1049): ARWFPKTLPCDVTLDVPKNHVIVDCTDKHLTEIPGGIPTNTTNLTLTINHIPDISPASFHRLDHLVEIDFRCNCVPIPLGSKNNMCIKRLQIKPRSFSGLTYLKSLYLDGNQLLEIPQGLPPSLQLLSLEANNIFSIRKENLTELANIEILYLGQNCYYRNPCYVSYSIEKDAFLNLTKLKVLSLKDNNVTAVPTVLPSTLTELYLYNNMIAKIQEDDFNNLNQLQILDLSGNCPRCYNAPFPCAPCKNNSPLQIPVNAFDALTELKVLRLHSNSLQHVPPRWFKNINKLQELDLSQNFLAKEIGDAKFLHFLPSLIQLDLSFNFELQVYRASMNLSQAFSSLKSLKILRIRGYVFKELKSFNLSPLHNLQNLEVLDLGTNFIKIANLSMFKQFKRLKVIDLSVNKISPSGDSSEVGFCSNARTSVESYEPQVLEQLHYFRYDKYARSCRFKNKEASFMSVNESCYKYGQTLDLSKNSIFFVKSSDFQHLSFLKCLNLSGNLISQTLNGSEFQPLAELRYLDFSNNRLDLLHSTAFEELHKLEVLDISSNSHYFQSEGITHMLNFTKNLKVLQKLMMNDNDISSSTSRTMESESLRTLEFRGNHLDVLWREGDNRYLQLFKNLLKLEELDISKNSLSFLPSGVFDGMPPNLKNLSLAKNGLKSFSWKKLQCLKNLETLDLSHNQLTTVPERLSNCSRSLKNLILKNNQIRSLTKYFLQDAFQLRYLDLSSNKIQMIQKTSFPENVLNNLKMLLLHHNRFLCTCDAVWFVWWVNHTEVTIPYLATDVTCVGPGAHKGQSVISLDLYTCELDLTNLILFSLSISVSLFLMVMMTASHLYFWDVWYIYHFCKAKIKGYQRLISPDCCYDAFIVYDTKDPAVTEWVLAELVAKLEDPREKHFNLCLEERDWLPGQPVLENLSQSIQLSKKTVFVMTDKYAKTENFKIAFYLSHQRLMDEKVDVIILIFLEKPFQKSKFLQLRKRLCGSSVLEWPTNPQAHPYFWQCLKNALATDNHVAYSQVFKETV
How it was run: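 Cryopreserved healthy-donor PBMCs (100,000/well, RPMI-1640 + 10% FBS) pre-incubated 1 h at 37 °C with antagonist (10-point dose response, quadruplicate), then stimulated 6 h with GS-986 at 400 nM final. Supernatant IL-6 and IFNα measured by electrochemiluminescence immunoassay; EC50 from sigmoidal fit.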

TLR8 = biological target: T2, TLR8 (Homo sapiens, UniProt Q9NR97); test: TLR8 human PBMC cell-based assay (antagonist, Compound A stimulated cytokine release); details: human PBMCs; TLR8 agonist Compound A 800 nM, 6 hours; cytokines (TNFa and IL 12p40) in supernatant; read-out: TLR-8 EC50
T2 construct: Human peripheral blood mononuclear cells (PBMCs) consist of lymphocytes, monocytes and dendritic cells that express TLR7, TLR8 and TLR9; endogenous in cells; host or cells: cryopreserved human PBMCs from healthy donors
T2 sequence (Q9NR97 27-1041): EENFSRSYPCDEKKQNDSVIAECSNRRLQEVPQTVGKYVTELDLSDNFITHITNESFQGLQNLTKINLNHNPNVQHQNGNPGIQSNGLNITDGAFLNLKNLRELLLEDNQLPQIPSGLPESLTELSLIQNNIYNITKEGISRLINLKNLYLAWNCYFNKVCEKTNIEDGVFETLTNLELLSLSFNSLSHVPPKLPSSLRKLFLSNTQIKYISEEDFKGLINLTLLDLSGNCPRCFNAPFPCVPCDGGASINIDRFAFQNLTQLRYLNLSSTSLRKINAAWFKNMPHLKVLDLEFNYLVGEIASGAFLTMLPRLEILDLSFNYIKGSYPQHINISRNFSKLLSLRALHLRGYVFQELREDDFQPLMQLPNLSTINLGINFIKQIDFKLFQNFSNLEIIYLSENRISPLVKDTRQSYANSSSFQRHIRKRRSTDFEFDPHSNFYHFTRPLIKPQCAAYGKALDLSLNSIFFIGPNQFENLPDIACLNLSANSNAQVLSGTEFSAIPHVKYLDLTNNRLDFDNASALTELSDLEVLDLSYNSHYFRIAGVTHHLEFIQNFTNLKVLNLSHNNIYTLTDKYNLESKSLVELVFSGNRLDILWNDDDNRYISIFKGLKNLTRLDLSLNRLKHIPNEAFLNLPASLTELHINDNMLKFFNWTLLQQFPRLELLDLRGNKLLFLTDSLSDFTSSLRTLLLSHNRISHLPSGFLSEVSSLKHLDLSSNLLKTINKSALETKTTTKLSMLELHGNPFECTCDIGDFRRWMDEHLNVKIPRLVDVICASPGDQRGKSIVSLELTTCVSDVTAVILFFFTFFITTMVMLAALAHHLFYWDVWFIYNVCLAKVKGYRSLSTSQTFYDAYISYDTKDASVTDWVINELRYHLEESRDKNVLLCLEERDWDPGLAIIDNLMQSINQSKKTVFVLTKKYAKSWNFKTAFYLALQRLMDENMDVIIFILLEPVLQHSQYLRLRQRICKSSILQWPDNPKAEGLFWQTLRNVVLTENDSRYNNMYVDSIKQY
How it was run: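 Cryopreserved donor PBMCs (100,000/well, RPMI + 10% FBS) were preincubated 1 h with antagonist (10-point dose response, quadruplicate), then stimulated with Compound A (800 nM final) for 6 h at 37 °C. TNFa and IL-12p40 in supernatants were measured by electrochemiluminescence; sigmoidal fits gave EC50.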

| SMILES | EC50 (TLR7) | EC50 (TLR8) |
| --- | --- | --- |
| Cc1cc(-c2[nH]c3cc(-c4nnc(C5CCC(N)CC5)o4)sc3c2C(C)C)cc(C)n1 (centres unmarked) [Example 71] | 22.3 nM | 23.6 nM |
| Cc1cc(-c2[nH]c3cc(C(=O)N4C[C@@H](C)N[C@H](C)C4)sc3c2C(C)C)cn2ncnc12 [Example 127] | 1.5 nM | 0.5 nM |
| Cc1cc(-c2[nH]c3cc(C(=O)N(C)[C@@H]4CCNC[C@@H]4F)sc3c2C(C)C)cn2ncnc12 [Example 79] | 0.3 nM | 9.1 nM |
| Cc1cc(-c2[nH]c3cc(C(=O)N(C)[C@@H]4CCNC4)sc3c2C(C)C)cc(C)n1 [Example 22] | 50.1 nM | 94 nM |
| Cc1cc(-c2[nH]c3cc(-c4nc(C5CCN(CC(N)=O)CC5)no4)sc3c2C(C)C)cn2ncnc12 [Example 166] | 5.1 nM | 5.1 nM |
| Cc1cc(-c2[nH]c3cc(C(=O)N4CCC[C@H](N)C4)sc3c2C(C)C)cc(C)n1 [Example 11] | 28.7 nM | 105 nM |
| Cc1cc(-c2[nH]c3cc(C(=O)N(C)[C@H]4CCNC4)sc3c2C(C)C)cn(C)c1=O [Example 36] | 29.8 nM | 37 nM |
| Cc1cc(-c2[nH]c3cc(C(=O)N4CC(N)C4)sc3c2C(C)C)cn2ncnc12 [Example 114] | 12.7 nM | 7.5 nM |
| Cc1cc(-c2[nH]c3cc(-c4cnn(C5CCNCC5)c4)sc3c2C(C)C)cn2ncnc12 [Example 215] | 0.3 nM | 2.3 nM |
| Cc1cc(-c2[nH]c3cc(C(=O)N4CCC[C@H]4CN(C)C)sc3c2C(C)C)cn2ncnc12 [Example 103] | 11.3 nM | 21.3 nM |
| Cc1cc(-c2[nH]c3cc(C(=O)N4C[C@H](N)C[C@H](C(F)(F)F)C4)sc3c2C(C)C)cn2ncnc12 [Example 59] | 24.1 nM | 15.4 nM |
| Cc1cc(-c2[nH]c3cc(C4CCN(CC(N)=O)C5(CCC5)C4)sc3c2C(C)C)cn2ncnc12 (centres unmarked) [Example 301] | 52 nM | 217 nM |
| Cc1cc(-c2[nH]c3cc(C(=O)N4CC(N(C)C)C4)sc3c2C(C)C)cn2ncnc12 [Example 147] | 152 nM | 2.4 nM |
| Cc1cc(-c2[nH]c3cc(C(=O)N4CC[C@@H](N(C)C)C4)sc3c2C(C)C)cn2ncnc12 [Example 144] | 5.4 nM | 1.1 nM |
| Cc1cc(-c2[nH]c3cc(C(=O)N4CCN[C@@H](c5ccccc5)C4)sc3c2C(C)C)cn2ncnc12 [Example 119] | 42.4 nM | 0.3 nM |
| Cc1cc(-c2[nH]c3cc(C4CCC5(C4)CN(CC(N)=O)C5)sc3c2C(C)C)cn2ncnc12 (single isomer, unassigned) [Example 310, 2-(6-(6-Isopropyl-5-(8-methyl-[1,2,4]triazolo[1,5-a]pyridin-6-yl)-4H-thieno[3,2-b]pyrrol-2-yl)-2-azaspiro[3.4]octan-2-yl)acetamide] | 0.18 nM | 1.36 nM |
| Cc1cc(-c2[nH]c3cc(C(=O)N(C)CC4CCN(CC(N)=O)CC4)sc3c2C(C)C)cn2ncnc12 [Example 174] | 11.4 nM | 16.8 nM |

| SMILES | EC50 (TLR7) | EC50 (TLR8) |
| --- | --- | --- |
| Cc1cc(-c2[nH]c3cc(C(=O)N4CCC5CCNC5C4)sc3c2C(C)C)cn2ncnc12 (centres unmarked) [Example 90] | 1 nM | 9.9 nM |
| Cc1cc(-c2[nH]c3cc(C(=O)N(C4CCNCC4)C4CC4)sc3c2C(C)C)cn2ncnc12 [Example 143] | 0.7 nM | 27 nM |
| Cc1cc(-c2[nH]c3cc(C(=O)N4C[C@@H]5C[C@H]4CN5)sc3c2C(C)C)cc(C)n1 [Example 20] | 223 nM | 26.4 nM |
| Cc1cc(-c2[nH]c3cc(C4CCC5CNCC5C4)sc3c2C(C)C)cn2ncnc12 (centres unmarked) [Example 157] | 0.3 nM | 31.7 nM |
| Cc1cc(-c2[nH]c3cc(-c4nnc(N5CCNCC5)s4)sc3c2C(C)C)cn2ncnc12 [Example 49] | 0.4 nM | 3.2 nM |
| CC(C)c1c(-c2ccc3ncnn3c2)[nH]c2cc(C(=O)N3CCNCC3)sc12 [Example 66] | 25.7 nM | 16.1 nM |
| Cc1c(-c2[nH]c3cc(-c4cn(C5CCNCC5)nn4)sc3c2C(C)C)cn2ncnc2c1C [Example 230] | 1.6 nM | 1.9 nM |
| Cc1cc(-c2[nH]c3cc(C(=O)N4CCCC5NCCC54)sc3c2C(C)C)cc(C)n1 (centres unmarked) [Example 28] | 26 nM | 81 nM |
| Cc1cc(-c2[nH]c3cc(C4CCC5(C4)CN(CC(N)=O)C5)sc3c2C(C)C)cn2ncnc12 (single isomer, unassigned) [Example 311, 2-(6-(6-Isopropyl-5-(8-methyl-[1,2,4]triazolo[1,5-a]pyridin-6-yl)-4H-thieno[3,2-b]pyrrol-2-yl)-2-azaspiro[3.4]octan-2-yl)acetamide] | 0.57 nM | 1.82 nM |
| Cc1nc(N2CCNCC2)ccc1-c1cc2[nH]c(-c3cc(C)c4ncnn4c3)c(C(C)C)c2s1 [Example 217] | 0.2 nM | 6 nM |
| Cc1cc(-c2[nH]c3cc(C(=O)N4CCNC(=O)C4)sc3c2C(C)C)cn2ncnc12 [Example 40, 4-[6-isopropyl-5-(8-methyl-[1,2,4]triazolo[1,5-a]pyridin-6-yl)-4H-thieno[3,2-b]pyrrole-2-carbonyl]piperazin-2-one] | 17.8 nM | 115 nM |
| Cc1cc(-c2[nH]c3cc(C4CCNCC4)sc3c2C(C)C)cn2ncnc12 [Example 154, 6-isopropyl-5-(8-methyl-[1,2,4]triazolo[1,5-a]pyridin-6-yl)-2-(piperidin-4-yl)-4H-thieno[3,2-b]pyrrole] | 0.6 nM | 3.6 nM |
| Cc1cc(-c2[nH]c3cc(C(=O)N4CCCC(CN(C)C)C4)sc3c2C(C)C)cn2ncnc12 (centres unmarked) [Example 112] | 2.9 nM | 6.4 nM |
| Cc1cc(-c2[nH]c3cc(C(=O)N(C)[C@H]4CCNC[C@@H]4F)sc3c2C(C)C)cn2ncnc12 [Example 78] | 0.4 nM | 8.6 nM |
| COc1cc(-c2[nH]c3cc(-c4cnc5c(c4)CNCC5)sc3c2C(C)C)cn2ncnc12 [Example 224] | 0.4 nM | 0.3 nM |
| Cc1cc(-c2[nH]c3cc(-c4cnc5c(c4)CNCC5)sc3c2C(C)C)cn2ncnc12 [Example 213] | 0.8 nM | 0.2 nM |
| Cc1cc(-c2[nH]c3cc(C(=O)N4CC5(CNC5)C4)sc3c2C(C)C)cc(C)n1 [Example 24] | 504 nM | 408 nM |
